We go through one compound from article PMC12140386, “Diallyl Trisulfide From Garlic Regulates RAB18 Phase Separation to Inhibit Lipophagy and Induce Cuproptosis in Hepatic Stellate Cells for Antifibrotic Effects” (Advanced Science, 2025).

Each structure is given as a SMILES string.

In assay [1] the target is T1, purified RAB18 protein (GFP‐RAB18) (Homo sapiens, UniProt Q9NP72).
T1 construct: GFP-fusion RAB18, expressed in E. coli BL21 (DE3), Ni-NTA purified
Kind of assay: FRAP of RAB18 droplets (also AFM). Particulars: 10 µM DATs; 50 µM protein; 50 mM HEPES pH 7.4, 150 mM NaCl; no added CaCl2. Type of assay: binding.

Assay [2] addresses T2, RAB18 protein in LX2 cells (Homo sapiens, UniProt Q9NP72).
T2 construct: endogenous RAB18 in human hepatic stellate cell line LX2 (CETSA)
The assay is described as follows: cellular thermal shift assay. The assay is classed as cell-based. Particulars: 10 µM DATs, 24 h.

T1 sequence (Q9NP72 whole entry, the tested form may be a part): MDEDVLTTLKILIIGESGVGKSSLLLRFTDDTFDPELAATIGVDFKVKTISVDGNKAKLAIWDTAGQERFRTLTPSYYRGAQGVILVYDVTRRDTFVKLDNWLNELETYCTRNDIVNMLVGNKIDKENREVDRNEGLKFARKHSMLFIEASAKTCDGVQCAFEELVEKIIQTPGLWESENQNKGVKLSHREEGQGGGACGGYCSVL
T2 sequence (Q9NP72 1-203): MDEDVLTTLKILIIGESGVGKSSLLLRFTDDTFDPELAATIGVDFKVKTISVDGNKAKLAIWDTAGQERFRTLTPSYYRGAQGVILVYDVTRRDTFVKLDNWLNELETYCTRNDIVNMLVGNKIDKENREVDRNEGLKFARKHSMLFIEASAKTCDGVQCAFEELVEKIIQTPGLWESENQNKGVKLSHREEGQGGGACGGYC

Turning to `C=CCSSSCC=C` [DATs, Diallyl trisulfides], the FRAP recovery percentage result in assay [1] is “~ ≈80%”. In addition, the CETSA entry in assay [2] was “DATs exhibit a strong affinity for RAB18, effectively binding to and stabilizing the conformation of RAB18”.
